Results published in US20260262643A1, “HERBICIDAL BENZOXAZINES” (FMC CORPORATION, priority 2022, published 2026).

What was measured:
green foxtail [1] = test: Test C preemergence; assay type: in vivo, Setaria viridis; conditions: 0 to 100 scale (0 no effect, 100 complete control); for Plant response rating, Foxtail, Green: Preemergence, 500 g ai/ha, visual rating after 10 days; for Foxtail, Green plant response rating: Test C, preemergence, 125 g ai/ha
Method in brief: (§1)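 Soil-applied (pre) and foliar (post, 1–2 leaf, 2–10 cm) sprays; surfactant-containing non-phytotoxic solvent vehicle; loam/sand substrate. Readout: visual % control at 10 d, greenhouse, versus untreated.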

blackgrass [2] = test: Test C preemergence; assay type: in vivo, Alopecurus myosuroides; conditions: 0 to 100 scale (0 no effect, 100 complete control); for Plant response rating, Blackgrass: Preemergence, 500 g ai/ha, visual rating after 10 days; for Blackgrass plant response rating: Test C, preemergence, 125 g ai/ha
Method in brief: as §1

soybean [3] = test: Test C preemergence; assay type: in vivo, Glycine max; conditions: 0 to 100 scale (0 no effect, 100 complete control); for Plant response rating, Soybean: Preemergence, 500 g ai/ha, visual rating after 10 days; for Soybean plant response rating: Test C, preemergence, 125 g ai/ha
Method in brief: as §1

wheat [4] = test: Test C preemergence; assay type: in vivo, Triticum aestivum; conditions: 0 to 100 scale (0 no effect, 100 complete control); for Plant response rating, Wheat: Preemergence, 500 g ai/ha, visual rating after 10 days; for Wheat plant response rating: Test C, preemergence, 125 g ai/ha
Method in brief: as §1

sedge, umbrella = test: Test D flooded paddy test; assay type: in vivo, Cyperus difformis; conditions: 250 g ai/ha, applied to paddy water, visual rating after 13 to 14 days, scale 0 to 100 (0 no effect, 100 complete control)
Method in brief: (§2)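 Seedlings reached the 2-leaf stage, then pots were flooded to 3 cm over the soil surface. Compound was applied into the water, depth was maintained, and plants stayed in the greenhouse 13 to 14 days before visual scoring (0–100) relative to controls.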

kochia [5] = test: Test C preemergence; assay type: in vivo, Bassia scoparia; conditions: 0 to 100 scale (0 no effect, 100 complete control); for Plant response rating, Kochia: Preemergence, 500 g ai/ha, visual rating after 10 days; for Kochia plant response rating: Test C, preemergence, 125 g ai/ha
Method in brief: as §1

pigweed, palmer [6] = test: Test C postemergence; assay type: in vivo, Amaranthus palmeri; conditions: 10 days
Method in brief: as §1

blackgrass [7] = test: Test C postemergence; assay type: in vivo, Alopecurus myosuroides; conditions: 10 days
Method in brief: as §1

kochia [8] = test: Test C postemergence; assay type: in vivo, Bassia scoparia; conditions: 10 days
Method in brief: as §1

oat, wild [9] = test: Test C preemergence; assay type: in vivo, Avena fatua; conditions: 0 to 100 scale (0 no effect, 100 complete control); for Plant response rating, Oat, Wild: Preemergence, 500 g ai/ha, visual rating after 10 days; for Oat, Wild plant response rating: Test C, preemergence, 125 g ai/ha
Method in brief: as §1

corn [10] = test: Test C postemergence; assay type: in vivo, Zea mays; conditions: 10 days
Method in brief: as §1

barnyardgrass [11] = test: Test C preemergence; assay type: in vivo, Echinochloa crusgalli; conditions: 0 to 100 scale (0 no effect, 100 complete control); for Plant response rating, Barnyardgrass: Preemergence, 500 g ai/ha, visual rating after 10 days; for Barnyardgrass plant response rating: Test C, preemergence, 125 g ai/ha
Method in brief: as §1

wheat [12] = test: Test C postemergence; assay type: in vivo, Triticum aestivum; conditions: 10 days
Method in brief: as §1

ragweed [13] = test: Test C preemergence; assay type: in vivo, Ambrosia artemisiifolia; conditions: 0 to 100 scale (0 no effect, 100 complete control); for Plant response rating, Ragweed: Preemergence, 500 g ai/ha, visual rating after 10 days; for Ragweed plant response rating: Test C, preemergence, 125 g ai/ha
Method in brief: as §1

corn [14] = test: Test C preemergence; assay type: in vivo, Zea mays; conditions: 0 to 100 scale (0 no effect, 100 complete control); for Plant response rating, Corn: Preemergence, 500 g ai/ha, visual rating after 10 days; for Corn plant response rating: Test C, preemergence, 125 g ai/ha
Method in brief: as §1

oat, wild [15] = test: Test C postemergence; assay type: in vivo, Avena fatua; conditions: 10 days
Method in brief: as §1

ducksalad = test: Test D flooded paddy test; assay type: in vivo, Heteranthera limosa; conditions: 250 g ai/ha, applied to paddy water, visual rating after 13 to 14 days, scale 0 to 100 (0 no effect, 100 complete control)
Method in brief: as §2

barnyardgrass [16] = test: Test D flooded paddy test; assay type: in vivo, Echinochloa crus-galli; conditions: 250 g ai/ha, applied to paddy water, visual rating after 13 to 14 days, scale 0 to 100 (0 no effect, 100 complete control)
Method in brief: as §2

ryegrass, Italian [17] = test: Test C preemergence; assay type: in vivo, Lolium multiflorum; conditions: 0 to 100 scale (0 no effect, 100 complete control); for Plant response rating, Ryegrass, Italian: Preemergence, 500 g ai/ha, visual rating after 10 days; for Ryegrass, Italian plant response rating: Test C, preemergence, 125 g ai/ha
Method in brief: as §1

ragweed [18] = test: Test C postemergence; assay type: in vivo, Ambrosia artemisiifolia; conditions: 10 days
Method in brief: as §1

horseweed = test: Test C postemergence; assay type: in vivo, Erigeron canadensis; conditions: 10 days
Method in brief: as §1

green foxtail [19] = test: Test C postemergence; assay type: in vivo, Setaria viridis; conditions: 10 days
Method in brief: as §1

barnyardgrass [20] = test: Test C postemergence; assay type: in vivo, Echinochloa crusgalli; conditions: 10 days
Method in brief: as §1

pigweed, palmer [21] = test: Test C preemergence; assay type: in vivo, Amaranthus palmeri; conditions: 0 to 100 scale (0 no effect, 100 complete control); for Plant response rating, Pigweed, Palmer: Preemergence, 500 g ai/ha, visual rating after 10 days; for Pigweed, Palmer plant response rating: Test C, preemergence, 125 g ai/ha
Method in brief: as §1

rice = test: Test D flooded paddy test; assay type: in vivo, Oryza sativa; conditions: 250 g ai/ha, applied to paddy water, visual rating after 13 to 14 days, scale 0 to 100 (0 no effect, 100 complete control)
Method in brief: as §2

soybean [22] = test: Test C postemergence; assay type: in vivo, Glycine max; conditions: 10 days
Method in brief: as §1

ryegrass, Italian [23] = test: Test C postemergence; assay type: in vivo, Lolium multiflorum; conditions: 10 days
Method in brief: as §1

[24] = 125 g ai/ha, postemergence, 0 to 100 scale, 0 no effect, 100 complete control
[25] = Postemergence, 500 g ai/ha, visual 0 to 100 scale (0 no effect, 100 complete control)

Compound: CC(C)c1ncn(-c2cc3c(c(C(=O)N4C[C@H](C)Oc5c(Cl)cccc54)c2)OCCO3)n1 [Compound 217, [(2S)-8-chloro-2-methyl-2,3-dihydro-1,4-benzoxazin-4-yl]-[7-(3-isopropyl-1,2,4-triazol-1-yl)-2,3-dihydro-1,4-benzodioxin-5-yl]methanone]
- Plant response rating, Foxtail, Green (green foxtail [1]): 100
- Foxtail, Green plant response rating (green foxtail [1]): 100
- Plant response rating, Blackgrass (blackgrass [2]): 90
- Blackgrass plant response rating (blackgrass [2]): 60
- Plant response rating, Soybean (soybean [3]): 100
- Soybean plant response rating (soybean [3]): 70
- Plant response rating, Wheat (wheat [4]): 90
- Wheat plant response rating (wheat [4]): 30
- Plant response rating, Sedge, Umbrella (Flood) (sedge, umbrella): 98
- Plant response rating, Kochia (kochia [5]): 100
- Kochia plant response rating (kochia [5]): 80
- Plant response rating, Pigweed, Palmer (pigweed, palmer [6]; [24]): 100
- Plant response rating, Pigweed, Palmer (pigweed, palmer [6]; [25]): 100
- pest or weed control at 125 g/ha (blackgrass [7]; Alopecurus myosuroides, post-emergence, 240 h, 125 g ai/ha, postemergence, 0 to 100 scale (0 no effect, 100 complete control), read-out: Plant response rating, Blackgrass): 90%
- pest or weed control at 500 g/ha (blackgrass [7]; Alopecurus myosuroides, post-emergence, 240 h, Postemergence, 500 g ai/ha, visual 0 to 100 scale (0 no effect, 100 complete control), read-out: Plant response rating, Blackgrass): 100%
- Plant response rating, Kochia (kochia [8]; [24]): 80
- Plant response rating, Kochia (kochia [8]; [25]): 90
- Plant response rating, Oat, Wild (oat, wild [9]): 90
- Oat, Wild plant response rating (oat, wild [9]): 90
- Corn plant response rating (crop injury, 0 = no effect, 100 = complete kill) at 125 g/ha (corn [10]; Zea mays, post-emergence, 240 h, 125 g ai/ha, postemergence, 0 to 100 scale (0 no effect, 100 complete control)): 70%
- Corn plant response rating (crop injury, 0 = no effect, 100 = complete kill) at 500 g/ha (corn [10]; Zea mays, post-emergence, 240 h, Postemergence, 500 g ai/ha, visual 0 to 100 scale (0 no effect, 100 complete control)): 70%
- Plant response rating, Barnyardgrass (barnyardgrass [11]): 100
- Barnyardgrass plant response rating (barnyardgrass [11]): 90
- Plant response rating, Wheat (wheat [12]; [24]): 50
- Plant response rating, Wheat (wheat [12]; [25]): 50
- Plant response rating, Ragweed (ragweed [13]): 100
- Ragweed plant response rating (ragweed [13]): 70
- Plant response rating, Corn (corn [14]): 40
- Corn plant response rating (corn [14]): 30
- Plant response rating, Oat, Wild (oat, wild [15]; [24]): 20
- Plant response rating, Oat, Wild (oat, wild [15]; [25]): 40
- Plant response rating, Ducksalad (Flood) (ducksalad): 85
- Plant response rating, Barnyardgrass (Flood) (barnyardgrass [16]): 50
- Plant response rating, Ryegrass, Italian (ryegrass, Italian [17]): 100
- Ryegrass, Italian plant response rating (ryegrass, Italian [17]): 90
- Plant response rating, Ragweed (ragweed [18]; [24]): 90
- Plant response rating, Ragweed (ragweed [18]; [25]): 100
- Plant response rating, Horseweed (horseweed; [24]): 80
- Plant response rating, Horseweed (horseweed; [25]): 100
- Plant response rating, Foxtail, Green (green foxtail [19]; [24]): 90
- Plant response rating, Foxtail, Green (green foxtail [19]; [25]): 90
- Plant response rating, Barnyardgrass (barnyardgrass [20]; [24]): 40
- Plant response rating, Barnyardgrass (barnyardgrass [20]; [25]): 80
- Plant response rating, Pigweed, Palmer (pigweed, palmer [21]): 100
- Pigweed, Palmer plant response rating (pigweed, palmer [21]): 100
- Plant response rating, Rice (Flood) (rice): 20
- Plant response rating, Soybean (soybean [22]; [24]): 100
- Plant response rating, Soybean (soybean [22]; [25]): 100
- Plant response rating, Ryegrass, Italian (ryegrass, Italian [23]; [24]): 70
- Plant response rating, Ryegrass, Italian (ryegrass, Italian [23]; [25]): 90

Compound: COc1cc(C(=O)N2C[C@H](C)Oc3c(Cl)cccc32)cc(-n2cnc(C(C)(C)C)n2)c1 [Compound 213]
- Plant response rating, Foxtail, Green (green foxtail [1]): 100
- Foxtail, Green plant response rating (green foxtail [1]): 100
- Plant response rating, Blackgrass (blackgrass [2]): 80
- Blackgrass plant response rating (blackgrass [2]): 60
- Plant response rating, Soybean (soybean [3]): 100
- Soybean plant response rating (soybean [3]): 50
- Plant response rating, Wheat (wheat [4]): 90
- Wheat plant response rating (wheat [4]): 10
- Plant response rating, Sedge, Umbrella (Flood) (sedge, umbrella): 100
- Plant response rating, Kochia (kochia [5]): 100
- Kochia plant response rating (kochia [5]): 30
- Plant response rating, Pigweed, Palmer (pigweed, palmer [6]; [24]): 100
- Plant response rating, Pigweed, Palmer (pigweed, palmer [6]; [25]): 100
- Plant response rating, Blackgrass (blackgrass [7]; [24]): 0
- Plant response rating, Blackgrass (blackgrass [7]; [25]): 70
- Plant response rating, Kochia (kochia [8]; [24]): 90
- Plant response rating, Kochia (kochia [8]; [25]): 90
- Plant response rating, Oat, Wild (oat, wild [9]): 70
- Oat, Wild plant response rating (oat, wild [9]): 10
- Plant response rating, Corn (corn [10]; [24]): 10
- Plant response rating, Corn (corn [10]; [25]): 20
- Plant response rating, Barnyardgrass (barnyardgrass [11]): 100
- Barnyardgrass plant response rating (barnyardgrass [11]): 60
- Plant response rating, Wheat (wheat [12]; [24]): 20
- Plant response rating, Wheat (wheat [12]; [25]): 20
- Plant response rating, Ragweed (ragweed [13]): 30
- Ragweed plant response rating (ragweed [13]): 0
- Plant response rating, Corn (corn [14]): 10
- Corn plant response rating (corn [14]): 0
- Plant response rating, Oat, Wild (oat, wild [15]; [24]): 10
- Plant response rating, Oat, Wild (oat, wild [15]; [25]): 20
- Plant response rating, Ducksalad (Flood) (ducksalad): 90
- Plant response rating, Barnyardgrass (Flood) (barnyardgrass [16]): 20
- Plant response rating, Ryegrass, Italian (ryegrass, Italian [17]): 90
- Ryegrass, Italian plant response rating (ryegrass, Italian [17]): 90
- Plant response rating, Ragweed (ragweed [18]; [24]): 30
- Plant response rating, Ragweed (ragweed [18]; [25]): 80
- Plant response rating, Horseweed (horseweed; [24]): 20
- Plant response rating, Horseweed (horseweed; [25]): 30
- Plant response rating, Foxtail, Green (green foxtail [19]; [24]): 40
- Plant response rating, Foxtail, Green (green foxtail [19]; [25]): 70
- Plant response rating, Barnyardgrass (barnyardgrass [20]; [24]): 20
- Plant response rating, Barnyardgrass (barnyardgrass [20]; [25]): 30
- Plant response rating, Pigweed, Palmer (pigweed, palmer [21]): 100
- Pigweed, Palmer plant response rating (pigweed, palmer [21]): 100
- Plant response rating, Rice (Flood) (rice): 0
- Plant response rating, Soybean (soybean [22]; [24]): 100
- Plant response rating, Soybean (soybean [22]; [25]): 100
- Plant response rating, Ryegrass, Italian (ryegrass, Italian [23]; [24]): 30
- Plant response rating, Ryegrass, Italian (ryegrass, Italian [23]; [25]): 60
